The target in test [1] is T1, DNA topoisomerase 1 (Homo sapiens) (UniProt P11387).
T1 sequence (whole entry): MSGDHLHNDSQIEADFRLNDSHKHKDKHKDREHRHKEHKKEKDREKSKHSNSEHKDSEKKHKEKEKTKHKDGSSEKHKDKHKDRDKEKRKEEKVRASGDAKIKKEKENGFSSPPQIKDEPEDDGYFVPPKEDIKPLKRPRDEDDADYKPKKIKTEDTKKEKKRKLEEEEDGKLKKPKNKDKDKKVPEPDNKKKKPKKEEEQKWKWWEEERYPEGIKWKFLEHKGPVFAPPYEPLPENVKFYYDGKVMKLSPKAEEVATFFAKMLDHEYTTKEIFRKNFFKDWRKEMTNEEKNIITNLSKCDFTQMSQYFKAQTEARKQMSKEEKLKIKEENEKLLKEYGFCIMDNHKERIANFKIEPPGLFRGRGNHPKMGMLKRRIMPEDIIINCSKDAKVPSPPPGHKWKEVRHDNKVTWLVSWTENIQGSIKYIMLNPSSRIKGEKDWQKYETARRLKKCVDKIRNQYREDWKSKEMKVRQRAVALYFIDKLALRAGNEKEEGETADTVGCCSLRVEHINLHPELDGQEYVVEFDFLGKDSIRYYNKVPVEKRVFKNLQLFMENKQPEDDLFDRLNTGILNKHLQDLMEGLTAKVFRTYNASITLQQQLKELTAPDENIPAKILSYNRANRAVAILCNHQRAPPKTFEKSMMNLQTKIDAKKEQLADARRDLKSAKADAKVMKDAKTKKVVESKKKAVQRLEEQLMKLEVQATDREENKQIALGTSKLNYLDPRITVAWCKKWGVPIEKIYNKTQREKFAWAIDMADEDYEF
The test is described as follows: Relative effective concentration that produces the same degree of cleavage on the plasmid DNA in the presence of human topoisomerase-1.

For test [2], the system named is Nucleic Acid. The experiment in a line: Compound-poly(dA).poly(dT) association constant at the melting temperature (80 degree C) of the compound-DNA complex was determined. The test is classed as nucleic-acid assay.
Test [3] concerns Nucleic Acid. The test is described as follows: Compound-poly(dA).poly(dT) association constant at the melting temperature (73.4 degree C) DNA complex was determined. It is filed as nucleic-acid assay.
For test [4], the system named is Nucleic Acid. The experiment in a line: Compound-poly(dA).poly(dT) association constant at the melting temperature (81.5 degree C) DNA complex was determined. It is filed as nucleic-acid assay.

As to `c1ccc(-c2ccc3[nH]c(-c4ccc5[nH]c(-c6ccc7[nH]nnc7c6)nc5c4)nc3c2)cc1`, the Topoisomerase-I activity in test [1] worked out at 1.

In the test on Nucleic Acid [2], `c1ccc(-c2ccc3[nH]c(-c4ccc5[nH]c(-c6ccc7cc[nH]c7c6)nc5c4)nc3c2)cc1` came in with a K Tm of 1.9e+08 M⁻¹. Moreover, in test [1], the Topoisomerase-I activity was found to be 5. As to `Oc1nc2ccc(-c3nc4cc(-c5nc6cc(-c7ccccc7)ccc6[nH]5)ccc4[nH]3)cc2nc1O`, the Topoisomerase-I activity in test [1] is 1. As for `c1ccc(-c2ccc3[nH]c(-c4ccc5[nH]c(-c6ccc7nccnc7c6)nc5c4)nc3c2)cc1`, in test [1], the Topoisomerase-I activity was greater than 100. In the case of `c1ccc(-c2ccc3[nH]c(-c4ccc5[nH]c(-c6ccc7[nH]ccc7c6)nc5c4)nc3c2)cc1`, the Topoisomerase-I activity in test [1] is 50. In the test on Nucleic Acid [3], this molecule gave a K Tm of 3.5e+07 M⁻¹.

With `c1ccc(-c2ccc3[nH]c(-c4ccc5[nH]c(-c6ccc7[nH]cnc7c6)nc5c4)nc3c2)cc1`, in test [1], the Topoisomerase-I activity came out at 1. The molecule also gave a K Tm in the test on Nucleic Acid [4] of 2.8e+08 M⁻¹.

The values above are taken from ChEMBL document CHEMBL1133328, “Heterocyclic bibenzimidazole derivatives as topoisomerase I inhibitors” (Bioorg Med Chem Lett, 2000).
